pIC50: −log10 of the molar value. No end group written: not given here.
Target: T1, human TNFα (Homo sapiens, UniProt P01375)
T1 construct: purchased Biosource, Camarillo, Calif
Assay: p55 receptor/IgG fusion protein binding assay (inhibition of TNFα capture by p55-Ig coated plate)
Settings: human recombinant TNFα 25 ng/ml preincubated with peptide; relative to TNFα in the absence of peptide; read-out: IC50 (concentration necessary to inhibit TNFα by 50%), inhibition of binding of TNFα to p55TNFr-IgG chimeric construct
Description: In order to screen compounds for their ability to block TNFα binding to the TNF p55 receptor, an assay has been designed using TNFα and a p55/IgG fusion protein in place of monovalent, non-fusion p55 TNF receptor protein. This assay was designed to identify peptides which bind to human TNFα and thereby prevent the capture of the TNFα by a microtiter plate coated with p55-Ig fusion protein. A constant concentration of human TNFα is preincubated with the test peptide and then incubated on the p55-Ig coated microtiter wells. Bound TNFα is detected using a specific antisera and an alkaline phosphatase-conjugated probe. An active peptide will reduce the amount of human TNFα bound to the well relative to control wells in which TNFα but no peptide was added.
A 96-well, U-bottom polyvinylchloride microtiter plate was coated with 50 μl/well of p55-Ig fusion protein at 5 μg/ml in 0.01M sodium phosphate, 0.15M sodium chloride (PBS) by incubation overnight at 4° C. or 2 hours at 37° C. The fusion protein, which consists of a p55 TNF receptor protein portion and an IgG portion, can be produced as disclosed in U.S. application Ser. No. 08/010,406 filed Jan. 29, 1993 which is incorporated herein by reference. The plate was washed three times with 0.05% Tween-20 in PBS, then blocked, by adding 150 μl/well of assay buffer (10 mM N-2-hydroxyethylpiperazine-N'-[…] (HEPES) pH 7.2, containing 0.1% porcine gelatin, 0.1% Tween-80, and 0.01% sodium azide) and continuing incubation for 1 hour at 37° C. or at 4° C. for 1-7 days.
Lyophilized peptides to be tested were weighed in tared 12×75 mm polystyrene tubes and reconstituted to a concentration of 1.2 mM with assay buffer. Each suspension was sonicated in a water bath for 1-5 minutes and vortexed 15-30 seconds to disperse large particles. Serial dilutions of each peptide suspension were prepared using assay buffer in a 96-well polystyrene microtiter plate. Additional wells received Fab fragment of the mouse/human monoclonal anti-human TNFα antibody cA2 (positive control) or assay buffer (negative control). […] The polystyrene dilution plate was then sealed and incubated 1 hour at room temperature on an orbital mixer set at moderate speed.
Following the sample preincubation, blocker was discarded from the p55-Ig coated plate and blotted dry. Aliquots (50 μl) of each peptide or control were transferred into duplicate wells on the p55-Ig coated plate which was then sealed and incubated 1 hour at 37° C. Duplicate wells containing only assay buffer were included as a plate blank. After incubation the p55-Ig plate was washed three times with 0.05% Tween-20 in PBS.
To detect TNFα captured by the p55-Ig plate, all wells were incubated in succession with polyclonal rabbit anti-human TNFα (Genzyme, Boston, Mass.; 1:500 in assay buffer, 50 μl/well), biotinylated goat anti-rabbit Ig (H&L) (Vector Laboratories, Burlingame, Calif.; 1 μg/ml in assay buffer, 50 μl/well) and streptavidin-alkaline phosphatase conjugate (Pierce, Rockford, Ill.; 1 μg/ml in assay buffer, 50 μl/well). All incubations were for 1 hour at 37° C. and after each incubation the plate was washed three times with 0.05% Tween-20 in PBS. Fifty microliters of alkaline phosphatase substrate solution (alkaline buffer (Sigma, St. Louis, Mo.) diluted 1:500 in deionized water plus one 5 mg tablet of p-nitrophenyl phosphate (Sigma, St. Louis, Mo.) per 5 ml of diluted buffer) was added to all wells and incubation continued for 20 minutes at room temperature. Color development was stopped by adding to all wells 50 μl of 3N sodium hydroxide. The optical density (OD) at 405 nm was measured on a microtiter plate reader (Molecular Devices Vmax plate reader), with the plate blank wells subtracted as background. The activity of each peptide was then expressed as the percent inhibition of TNFα capture by the p55-Ig plate, relative to the amount of TNFα captured in wells containing only assay buffer (negative control), as follows: […]

T1 sequence (P01375 77-233 limits assumed): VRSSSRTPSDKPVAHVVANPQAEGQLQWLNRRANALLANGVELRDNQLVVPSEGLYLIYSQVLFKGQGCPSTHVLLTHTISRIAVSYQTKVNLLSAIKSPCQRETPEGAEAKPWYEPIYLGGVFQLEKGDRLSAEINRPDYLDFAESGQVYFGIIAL

| Substance | pIC50 |
| --- | --- |
| Ac-DILLTQSPAILSVSPGERVSFS-NH2 [SEQ ID NO:6, Acetyl-aspartyl-isoleucyl-leucyl-leucyl-threonyl-glutaminyl-seryl-prolyl-alanyl-isoleucyl-leucyl-seryl-valyl-seryl-prolyl-glycyl-glutamyl-arginyl-valyl-seryl-phenylalanyl-serine-amide] | 2.60 |
| Ac-FSNHWMNW-NH2 [SEQ ID NO:9, Acetyl-phenylalanyl-seryl-asparaginyl-histidyl-tryptophyl-methionyl-asparaginyl-tryptophan-amide] | 4.22 |
| Ac-FSNHWMNWVR-NH2 [SEQ ID NO:2, Acetyl-phenylalanyl-seryl-asparaginyl-histidyl-tryptophyl-methtonyl-asparaginyl-tryptophyl-valyl-arginine-amide] | 3.39 |
| Ac-INTVESEDIADYYCQQSHSW-NH2 [SEQ ID NO:8, Acetyl-isoleucyl-asparaginyl-threonyl-valyl-glutamyl-seryl-glutamyl-aspartyl-isoleucyl-alanyl-aspartyl-tyrosyl-tyrosyl-cysteinyl-glutaminyl-glutaminyl-seryl-histidyl-seryl-tryptophan-amide] | 2.95 |
| Ac-LIKYASQSMSGI-NH2 [SEQ ID NO:1, Acetyl-leucyl-tsoleucyl-lysyl-tyrosyl-alanyl-seryl-glutaminyl-seryl-methionyl-seryl-glycyl-isoleucine-amide] | 2.73 |
| Ac-TDLRTEDTGVYYCSRNYYGSTY-NH2 [SEQ ID NO:5, Acetyl-threonyl-aspartyl-leucyl-arginyl-threonyl-glutamyl-aspartyl-threonyl-glycyl-valyl-tyrosyltyrosyl-cysteinyl-seryl-arginyl-asparaginyl-tyrosyl-tyrosyl-glycyl-seryl-threonyl-tyrosine-amide] | 2.95 |
| Ac-YAESVKGRFTISRDDSKSAVYL-NH2 [SEQ ID NO:3, Acetyl-tyrosyl-alanyl-glutamyl-seryl-valyl-lysyl-glycyl-arginyl-phenylalanyl-threonyl-isoleucyl-seryl-arginyl-aspartyl-aspartyl-seryl-lysyl-seryl-alanyl-valyl-tyrosyl-leucine-amide] | 3.54 |
| Ac-YYSQQSHSWPFTF-NH2 [SEQ ID NO:7, Acetyl-tyrosyl-tyrosyl-seryl-glutaminyl-glutaminyl-seryl-histidyl-seryl-tryptophyl-prolyl-phenylalanyl-threonyl-phenylalanine-amide] | 2.97 |
| RQSPEKGLEWVAEIRSKSI-NH2 [SEQ ID NO:4, Arginyl-glutaminyl-seryl-prolyl-glutamyl-lysyl-glycyl-leucyl-glutamyl-tryptophyl-valyl-alanyl-glutamyl-isoleucyl-arginyl-seryl-lysyl-seryl-isoleucine- amide] | 2.99 |

Source: US5519000A, “Tumor necrosis factor inhibitors” (Centecor, Inc., priority 1994, dated 1996)
